# Measurements published in BigSolDB 2.1.
smiles,measurement,setting,value
O=C1C=CC(=O)c2ccccc21,solubility (mole fraction),"in acetone, 293.27 K",0.0362
same,solubility (mole fraction),"in acetone, 295.46 K",0.0373
same,solubility (mole fraction),"in acetone, 295.8 K",0.0377
same,solubility (mole fraction),"in acetone, 298.25 K",0.0399
same,solubility (mole fraction),"in acetone, 298.51 K",0.0403
same,solubility (mole fraction),"in acetone, 299.07 K",0.0411
same,solubility (mole fraction),"in acetone, 300.66 K",0.0437
same,solubility (mole fraction),"in acetone, 302.06 K",0.0467
same,solubility (mole fraction),"in acetone, 304 K",0.0503
same,solubility (mole fraction),"in acetone, 305.3 K",0.0532
same,solubility (mole fraction),"in acetone, 308.24 K",0.0584
same,solubility (mole fraction),"in acetone, 311.24 K",0.0639
same,solubility (mole fraction),"in acetone, 312.91 K",0.0683
same,solubility (mole fraction),"in acetone, 314.97 K",0.0727
same,solubility (mole fraction),"in acetone, 316.33 K",0.0767
same,solubility (mole fraction),"in acetone, 318.06 K",0.081
same,solubility (mole fraction),"in acetone, 319.63 K",0.0856
same,solubility (mole fraction),"in ethanol, 279.8 K",0.00145
same,solubility (mole fraction),"in ethanol, 285.78 K",0.00221
same,solubility (mole fraction),"in ethanol, 289.05 K",0.00277
same,solubility (mole fraction),"in ethanol, 292.72 K",0.00335
same,solubility (mole fraction),"in ethanol, 296.52 K",0.00412
same,solubility (mole fraction),"in ethanol, 299.87 K",0.00487
same,solubility (mole fraction),"in ethanol, 303.25 K",0.00596
same,solubility (mole fraction),"in ethanol, 305.99 K",0.00696
same,solubility (mole fraction),"in ethanol, 309.13 K",0.00825
same,solubility (mole fraction),"in ethanol, 311.85 K",0.00945
same,solubility (mole fraction),"in ethanol, 314.73 K",0.0109
same,solubility (mole fraction),"in ethanol, 316.84 K",0.0121
same,solubility (mole fraction),"in ethanol, 319.52 K",0.0134
same,solubility (mole fraction),"in ethanol, 321.15 K",0.0145
same,solubility (mole fraction),"in ethanol, 322.93 K",0.0157
same,solubility (mole fraction),"in ethanol, 328.25 K",0.0199
same,solubility (mole fraction),"in ethanol, 329.13 K",0.0212
same,solubility (mole fraction),"in ethanol, 331.34 K",0.0235
same,solubility (mole fraction),"in ethanol, 333.04 K",0.0256
same,solubility (mole fraction),"in ethanol, 334.13 K",0.0274
same,solubility (mole fraction),"in ethanol, 335.43 K",0.0294
same,solubility (mole fraction),"in n-butanol, 302.1 K",0.00657
same,solubility (mole fraction),"in n-butanol, 307.2 K",0.00908
same,solubility (mole fraction),"in n-butanol, 312.32 K",0.012
same,solubility (mole fraction),"in n-butanol, 317.1 K",0.0152
same,solubility (mole fraction),"in n-butanol, 319.33 K",0.017
same,solubility (mole fraction),"in n-butanol, 320.94 K",0.0183
same,solubility (mole fraction),"in n-butanol, 322.16 K",0.0199
same,solubility (mole fraction),"in n-butanol, 325.85 K",0.0238
same,solubility (mole fraction),"in n-butanol, 330.35 K",0.0307
same,solubility (mole fraction),"in n-butanol, 334.33 K",0.0377
same,solubility (mole fraction),"in n-butanol, 336.45 K",0.0434
same,solubility (mole fraction),"in n-butanol, 339.23 K",0.05
same,solubility (mole fraction),"in n-butanol, 341.3 K",0.056
same,solubility (mole fraction),"in n-butanol, 343.26 K",0.0624
same,solubility (mole fraction),"in n-butanol, 344.6 K",0.0695
same,solubility (mole fraction),"in n-butanol, 346.03 K",0.0763
same,solubility (mole fraction),"in toluene, 294.1 K",0.0476
same,solubility (mole fraction),"in toluene, 297.82 K",0.0537
same,solubility (mole fraction),"in toluene, 300.35 K",0.0585
same,solubility (mole fraction),"in toluene, 302.68 K",0.0631
same,solubility (mole fraction),"in toluene, 304.44 K",0.0668
same,solubility (mole fraction),"in toluene, 306.58 K",0.0723
same,solubility (mole fraction),"in toluene, 310.16 K",0.081
same,solubility (mole fraction),"in toluene, 313.15 K",0.089
same,solubility (mole fraction),"in toluene, 315.25 K",0.094
same,solubility (mole fraction),"in toluene, 317.27 K",0.0994
same,solubility (mole fraction),"in toluene, 319.93 K",0.107
same,solubility (mole fraction),"in toluene, 321.45 K",0.113
same,solubility (mole fraction),"in toluene, 322.53 K",0.116
same,solubility (mole fraction),"in toluene, 322.93 K",0.118
same,solubility (mole fraction),"in toluene, 327.2 K",0.133
same,solubility (mole fraction),"in toluene, 330.45 K",0.145
same,solubility (mole fraction),"in toluene, 331.95 K",0.153
